Assay [1] has as its target T1, mouse RORγ (Mus musculus, UniProt P51450).
T1 construct: mouse, NM_011281.2 and from Ile251 to Lys516; expressed in transfected cells; host or cells: CHO cells (transient co-transfection with pG5-Luc reporter)
T1 sequence (P51450 251-516): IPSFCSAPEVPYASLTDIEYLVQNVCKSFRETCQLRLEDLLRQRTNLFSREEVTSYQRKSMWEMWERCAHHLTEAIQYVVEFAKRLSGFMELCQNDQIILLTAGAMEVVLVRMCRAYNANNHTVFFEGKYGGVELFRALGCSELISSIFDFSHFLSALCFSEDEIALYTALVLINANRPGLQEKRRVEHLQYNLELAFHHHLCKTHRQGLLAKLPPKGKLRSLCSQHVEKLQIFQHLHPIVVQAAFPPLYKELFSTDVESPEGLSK
The assay is described as follows: Luciferase reporter gene assay of inhibitory effect against RORγ transcriptional activity (GAL4-mRORγ plasmid in CHO cells). The format is cell-based. Conditions: read-out: LUC EC50 (μM) mRORg. The essentials: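 CHO cells transiently co-transfected with GAL4-mouse RORγ LBD (Ile251–Lys516) and GAL4-dependent luciferase reporter; eight compound concentrations, 0.1% DMSO, 2 days at 37 °C. Luminescence as %-of-vehicle control; EC50 by curve fit, cytotoxic concentrations excluded.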

Assay [2] has as its target T2, human RORγ (Homo sapiens, UniProt P51449).
T2 construct: human, NM_005060.3 and from Ser253 to Lys518; expressed in transfected cells; host or cells: CHO cells (transient co-transfection with pG5-Luc reporter)
T2 sequence (P51449 253-518): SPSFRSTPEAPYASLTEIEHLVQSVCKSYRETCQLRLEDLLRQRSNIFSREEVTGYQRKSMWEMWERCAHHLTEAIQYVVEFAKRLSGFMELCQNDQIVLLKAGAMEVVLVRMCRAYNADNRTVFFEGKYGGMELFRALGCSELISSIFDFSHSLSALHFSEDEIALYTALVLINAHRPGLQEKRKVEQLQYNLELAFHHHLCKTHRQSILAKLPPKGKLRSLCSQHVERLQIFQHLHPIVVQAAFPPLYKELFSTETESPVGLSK
The assay is described as follows: Luciferase reporter gene assay of inhibitory effect against RORγ transcriptional activity (GAL4-hRORγ plasmid in CHO cells). The format is cell-based. Conditions: read-out: LUC EC50 (μM) hRORg. A general note: In a reporter assay the amount or activity of a reporter protein is the signal.

Consider 55 compounds from patent US20160137639A1, “TRIAZOLE-ISOXAZOLE COMPOUND AND MEDICAL USE THEREOF” (JAPAN TOBACCO INC., priority 2012, published 2016).

The structures appear in SMILES notation.

Usually EC50 stands for the concentration at which the effect is half-maximal.

As to `CCn1c(CCC(=O)Nc2cccc3ccccc23)nnc1CCc1ccccc1` [Example F-12], the concentration for a half-maximal effect (EC50) in assay [1] and in assay [2] was < 3 µM throughout.

Turning to `CCn1c(CCC(=O)Nc2cccc3ccccc23)nnc1CCC1CCCCC1` [Example F-13], the EC50 in assay [1] and in assay [2] was < 3 µM throughout.

Regarding `CCc1c(CCC(=O)Nc2cccc3ccccc23)noc1C1Cc2ccccc2C1` [Example F-14], the EC50 in assay [1] and in assay [2] was < 3 µM in each case.

With `CCn1c(CCC(=O)Nc2cc(C)cc(C)c2)nnc1C1Cc2ccccc2C1` [Example F-16], the EC50 in assay [1] was < 3 µM; in assay [2], > 3 µM.

In the case of `CCn1c(CCC(=O)Nc2cccc3ccccc23)nnc1CC1CCCCC1` [Example F-17], the EC50 was < 3 µM in assay [1] and > 3 µM in assay [2].

Consider `CCn1c(CCC(=O)NCc2cccc3ccccc23)nnc1C1Cc2ccccc2C1` [Example F-18], for which the concentration for a half-maximal effect (EC50) in assay [1] and in assay [2] was < 3 µM each time.

As to `CCn1c(CCC(=O)Nc2cccc3ccccc23)nnc1CCC(C)C` [Example F-19], the half-maximal effective concentration (EC50) in assay [1] was < 3 µM; in assay [2], > 3 µM.

With `CCn1c(CCC(=O)Nc2cccc3ccccc23)nnc1C1CCCCC1` [Example F-20], the half-maximal effective concentration (EC50) in assay [1] and in assay [2] was > 3 µM each time.

Take `CCn1c(CCC(=O)NC2CCCCC2)nnc1C1Cc2ccccc2C1` [Example F-21]: the EC50 in assay [1] and in assay [2] was > 3 µM in each case.

As to `CCn1c(CCC(=O)NCc2ccccc2)nnc1C1Cc2ccccc2C1` [Example F-22], the EC50 in assay [1] and in assay [2] was > 3 µM in each case.

Take `CCn1c(CCC(=O)Nc2ccccc2)nnc1C1Cc2ccccc2C1` [Example F-23]: the half-maximal effective concentration (EC50) in assay [1] and in assay [2] was > 3 µM in each case.

`CCn1c(CCC(=O)NC23CC4CC(CC(C4)C2)C3)nnc1C1Cc2ccccc2C1` [Example F-24]: the concentration giving a half-maximal response (EC50) in assay [1] and in assay [2] was > 3 µM throughout.

In the case of `CCn1c(CCC(=O)Nc2cccc3ccccc23)nnc1CCC(C)(C)C` [Example F-25], the half-maximal effective concentration (EC50) in assay [1] is < 3 µM; in assay [2], > 3 µM.

As to `CCCC(CCC)NC(=O)CCc1nnc(C2Cc3ccccc3C2)n1CC` [Example F-28], the EC50 in assay [1] and in assay [2] was > 3 µM throughout.

Regarding `CCn1c(CCC(=O)Nc2cc(Cl)cc(Cl)c2)nnc1C1Cc2ccccc2C1` [Example F-29], the concentration giving a half-maximal response (EC50) in assay [1] and in assay [2] was > 3 µM in each case.

As to `CCn1c(CCC(=O)Nc2cccc(Cl)c2Cl)nnc1C1Cc2ccccc2C1` [Example F-30], the EC50 in assay [1] was < 3 µM; in assay [2] it was > 3 µM.

Regarding `CCn1c(CCC(=O)Nc2ccc(Cl)cc2Cl)nnc1C1Cc2ccccc2C1` [Example F-31], the concentration giving a half-maximal response (EC50) in assay [1] and in assay [2] was > 3 µM in each case.

Regarding `CCn1c(CCC(=O)Nc2cc(C)cc(C)c2)nnc1CCC1CCCCC1` [Example F-38], the EC50 was > 3 µM in assay [1] and < 3 µM in assay [2].

For `CCn1c(CCC(=O)Nc2cccc(Cl)c2C)nnc1CCC1CCCCC1` [Example F-39], the EC50 in assay [1] and in assay [2] was < 3 µM each time.

As for `CCn1c(CCC(=O)Nc2ccc(C)cc2C)nnc1CCC1CCCCC1` [Example F-40], the concentration for a half-maximal effect (EC50) in assay [1] and in assay [2] was < 3 µM throughout.

For the compound `CCn1c(CCC(=O)NCc2ccccc2C)nnc1CCC1CCCCC1` [Example F-41], the EC50 in assay [1] and in assay [2] was < 3 µM throughout.

As to `CCn1c(CCC(=O)NCc2cccc(C)c2)nnc1CCC1CCCCC1` [Example F-42], the 50% effective concentration (EC50) in assay [1] and in assay [2] was > 3 µM each time.

Turning to `CCn1c(CCC(=O)NCc2ccccc2)nnc1CCC1CCCCC1` [Example F-45], the EC50 in assay [1] and in assay [2] was > 3 µM in each case.

In the case of `CCn1c(CCC(=O)Nc2cc(C)cc(C)c2)nnc1CCC(C)(C)C` [Example F-46], the concentration for a half-maximal effect (EC50) in assay [1] and in assay [2] was > 3 µM throughout.

For `CCn1c(CCC(=O)Nc2ccc(C)cc2C)nnc1CCC(C)(C)C` [Example F-47], the EC50 in assay [1] is < 3 µM; in assay [2] it was > 3 µM.

In the case of `CCn1c(CCC(=O)Nc2ccc(C)cc2C)nnc1CCC1CCCC1` [Example F-48], the EC50 in assay [1] is < 3 µM; in assay [2], > 3 µM.

For `CCn1c(CCC(=O)Nc2cc(C)cc(C)c2)nnc1CCC1CCCC1` [Example F-49], the concentration for a half-maximal effect (EC50) in assay [1] and in assay [2] was > 3 µM in each case.

In the case of `CCn1c(CCC(=O)Nc2cc(C)cc(C)c2)nnc1CCC(C)C` [Example F-50], the EC50 in assay [1] and in assay [2] was > 3 µM each time.

On to `CCn1c(CCC(=O)Nc2ccc(C)cc2C)nnc1CCC(C)C` [Example F-51], for which the EC50 in assay [1] and in assay [2] was > 3 µM throughout.

With `CCn1c(CCC(=O)Nc2cccc(Cl)c2C)nnc1CCC(C)C` [Example F-52], the results for the concentration for a half-maximal effect (EC50) in assay [1] and in assay [2] were < 3 µM and > 3 µM, respectively.

In the case of `CCn1c(CCC(=O)Nc2cccc(Cl)c2C)nnc1CCC(C)(C)C` [Example F-53], the EC50 in assay [1] is < 3 µM; in assay [2], > 3 µM.

As for `CCn1c(CCC(=O)Nc2cccc(Cl)c2C)nnc1CCC1CCCC1` [Example F-54], the EC50 in assay [1] and in assay [2] was < 3 µM throughout.

As for `Cc1c(Cl)cccc1NC(=O)CCc1nnc(CCC(C)C)n1C1CC1` [Example F-55], the figures for the 50% effective concentration (EC50) in assay [1] and in assay [2] were < 3 µM and > 3 µM, respectively.

Turning to `CC(C)CCc1nnc(CCC(=O)Nc2ccccc2)n1C1CC1` [Example F-56], the EC50 in assay [1] and in assay [2] was > 3 µM in each case.

Consider `CC(C)CCc1nnc(CCC(=O)NCc2ccccc2)n1C1CC1` [Example F-57], for which the EC50 in assay [1] and in assay [2] was > 3 µM in each case.

On to `CC(C)CCc1nnc(CCC(=O)NCCc2ccccc2)n1C1CC1` [Example F-58], for which the EC50 in assay [1] and in assay [2] was > 3 µM throughout.

With `Cc1ccccc1CNC(=O)CCc1nnc(CCC(C)C)n1C1CC1` [Example F-59], the EC50 in assay [1] and in assay [2] was > 3 µM in each case.

Take `Cc1cccc(CNC(=O)CCc2nnc(CCC(C)C)n2C2CC2)c1` [Example F-60]: the concentration for a half-maximal effect (EC50) in assay [1] and in assay [2] was > 3 µM each time.

On to `Cc1ccc(CNC(=O)CCc2nnc(CCC(C)C)n2C2CC2)cc1` [Example F-61], for which the concentration for a half-maximal effect (EC50) in assay [1] and in assay [2] was > 3 µM in each case.

For `CC(C)CCc1nnc(CCC(=O)N[C@@H](C)c2ccccc2)n1C1CC1` [Example F-62], the EC50 in assay [1] and in assay [2] was > 3 µM each time.

Regarding `CC(C)CCc1nnc(CCC(=O)N[C@H](C)c2ccccc2)n1C1CC1` [Example F-63], the EC50 in assay [1] and in assay [2] was > 3 µM in each case.

`Cc1ccccc1NC(=O)CCc1nnc(CCC(C)C)n1C1CC1` [Example F-64]: the EC50 in assay [1] and in assay [2] was > 3 µM in each case.

`Cc1cccc(NC(=O)CCc2nnc(CCC(C)C)n2C2CC2)c1` [Example F-65]: the EC50 in assay [1] and in assay [2] was > 3 µM throughout.

Regarding `Cc1ccc(NC(=O)CCc2nnc(CCC(C)C)n2C2CC2)cc1` [Example F-66], the EC50 in assay [1] and in assay [2] was > 3 µM in each case.

Consider `Cc1ccc(CCNC(=O)CCc2nnc(CCC(C)C)n2C2CC2)cc1` [Example F-67], for which the concentration for a half-maximal effect (EC50) in assay [1] and in assay [2] was > 3 µM throughout.

Regarding `Cc1cccc(CCNC(=O)CCc2nnc(CCC(C)C)n2C2CC2)c1` [Example F-68], the EC50 in assay [1] and in assay [2] was > 3 µM each time.

`Cc1ccc(NC(=O)CCc2nnc(CCC(C)(C)C)n2C2CC2)c(C)c1` [Example F-69]: the concentration giving a half-maximal response (EC50) in assay [1] was < 3 µM; in assay [2], > 3 µM.

As to `Cc1cccc(C)c1NC(=O)CCc1nnc(CCC(C)C)n1C1CC1` [Example F-70], the EC50 in assay [1] and in assay [2] was > 3 µM throughout.

`Cc1ccc(C)c(NC(=O)CCc2nnc(CCC(C)C)n2C2CC2)c1` [Example F-71]: the EC50 in assay [1] and in assay [2] was > 3 µM in each case.

On to `CCc1ccccc1NC(=O)CCc1nnc(CCC(C)C)n1C1CC1` [Example F-72], for which the EC50 in assay [1] and in assay [2] was > 3 µM in each case.

On to `COc1ccccc1NC(=O)CCc1nnc(CCC(C)C)n1C1CC1` [Example F-73], for which the EC50 in assay [1] and in assay [2] was > 3 µM in each case.

Take `Cc1ccc(NC(=O)CCc2nnc(CCC(C)C)n2C2CC2)cc1C` [Example F-74]: the concentration giving a half-maximal response (EC50) in assay [1] and in assay [2] was > 3 µM in each case.

On to `CC(C)CCc1nnc(CCC(=O)Nc2ccccc2C(C)C)n1C1CC1` [Example F-75], for which the concentration for a half-maximal effect (EC50) in assay [1] and in assay [2] was > 3 µM in each case.

`Cc1cc(C)cc(NC(=O)CCc2nnc(CCC(C)C)n2C2CC2)c1` [Example F-76]: the EC50 in assay [1] and in assay [2] was > 3 µM in each case.

`CCCc1ccccc1NC(=O)CCc1nnc(CCC(C)C)n1C1CC1` [Example F-77]: the EC50 in assay [1] and in assay [2] was > 3 µM in each case.
